Values of other authors as cited in patent US20220257469A1, “PHARMACEUTICAL UNIT DOSE SYSTEMS FOR ORAL DRY SOLUTION AND SUSPENSION” (Brillian Pharma Inc., priority 2019, published 2022).

Conditions: liquid suspension, in five days, not refrigerated

Structure (SMILES): O=C(O)[C@H]1/C(=C/CO)O[C@@H]2CC(=O)N21 [Clavulanic acid]
- loss of potency: 30-40%
